Measured values published in paper PMC7680447 (Glycoconjugate journal, 2020).
“And” between values parts separate entries of the source, which are not always exact repeats. Equal values may be shown once. “Also recorded” adds a separate entry of the source. Read-outs that look alike come from different tables or passages of the source. One block for each molecule: values may come before it.

Experiments:
Gal-1 (Galectin-1) [1] = target: T1, Gal-1 (Galectin-1) (Homo sapiens, UniProt P09382); test: Isothermal titration calorimetry, binding to Gal-1; details: for Gal-1 binding affinity in words: ITC in solution; for Gal-1 binding affinity in words / −TΔS / −ΔG / −ΔH: phosphate buffer pH 7.2; for Kd in HEPES buffer (values not given): HEPES buffer containing 0.05% Tween-20, control titrations; for n-value: rounded/summary values in text, Gal-1 treated as a dimer for concentration input
Gal-1 (Galectin-1) [2] = target: T1, Gal-1 (Galectin-1); details: in solution, isothermal titration calorimetry, ref [16]; cited from earlier work
Gal-3 (Galectin-3) [3] = target: T2, Gal-3 (Galectin-3) (Homo sapiens, UniProt P17931); details: ref [34]; cited from earlier work
Gal-1 = details: glycan microarray format, ref [29]; cited from earlier work
Gal-1, His52 mutant = details: mutagenesis of His52 enabled binding of TF; ref [16]; cited from earlier work
[4] = test system: Gal-1 CRD in Gal-1/Gal-3 heterodimers; details: sequential model, at full loading, ref [48]; cited from earlier work
his-tagged Gal-1 = his-tagged Gal-1 (Homo sapiens, UniProt P09382); test: Isothermal titration calorimetry, binding to his-tagged Gal-1; details: for agreement of titrations: his-tagged Gal-1 vs Gal-1 and previously reported value, ref [40]; for n (binding stoichiometry): lectin treated as a dimer
Gal-3 (Galectin-3) [5] = target: T2, Gal-3 (Galectin-3); test: Binding to Gal-3; details: Gal-3 affinity greater than Gal-1 (Table 1 and Fig. S15)
Galectin-3 = Galectin-3 (UniProt P17931 1-250); test: ITC
Galectin-1 = Galectin-1 (human, UniProt P09382 1-135); test: ITC
[6] = target: histidine-tagged Galectin-1 (human, UniProt P09382 1-135); test: ITC
[7] = ITC, 25 °C, one-set-of-sites model
[8] = ITC, PEAQ-ITC, 25 °C, 20 mM phosphate, 10 mM NaCl, 10 mM β-mercaptoethanol, pH 7.2, one-set-of-sites model, [ligand] mM/[cell] μM: LacNAc 6.0/140, lactose 8.0/80, ASF 218/61 (so in the source), TF and Thr-TF 6.0/50
[9] = ITC, 25 °C, pH 7.2, ASF at 0.525 mM
[10] = second ASF titration: 0.700 mM ASF, 200 μM His-tag-Gal-1, ITC, 25 °C, pH 7.2

histidine-tagged Galectin-1, sequence (P09382 whole entry): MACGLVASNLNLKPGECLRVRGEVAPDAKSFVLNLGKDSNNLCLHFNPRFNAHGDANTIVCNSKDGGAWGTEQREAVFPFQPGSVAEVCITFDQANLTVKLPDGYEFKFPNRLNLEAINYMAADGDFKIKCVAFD
T1 sequence (P09382 whole entry): as above
his-tagged Gal-1, sequence (P09382 whole entry): as above
Galectin-1, sequence (P09382 whole entry): as above
T2 sequence (P17931 whole entry): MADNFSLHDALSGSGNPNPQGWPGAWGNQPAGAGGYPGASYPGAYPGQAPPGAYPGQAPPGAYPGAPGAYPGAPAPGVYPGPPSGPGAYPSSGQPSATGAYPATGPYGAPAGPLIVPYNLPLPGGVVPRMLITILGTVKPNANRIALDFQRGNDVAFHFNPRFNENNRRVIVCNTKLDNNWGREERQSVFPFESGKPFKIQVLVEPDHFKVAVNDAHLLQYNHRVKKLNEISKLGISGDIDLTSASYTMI
Galectin-3, sequence (P17931 whole entry): as above

Molecule: CC(=O)N[C@@H](C=O)[C@@H](O[C@@H]1O[C@H](CO)[C@H](O)[C@H](O)[C@H]1O)[C@@H](O)[C@H](O)CO [TF, 2-Acetamido-2-deoxy-3-O-β-D-galactopyranosyl-D-galactose]
- Kd (Gal-1 (Galectin-1) [1]): 3.8 mM
- Gal-1 binding affinity in words (Gal-1 (Galectin-1) [1]; 25 °C, listed as TF disaccharide): binding by Gal-1 in mM range; also recorded: failed to recognize TF disaccharide and Thr-TF (TF antigen) beyond the millimolar affinity
- −TΔS (Gal-1 (Galectin-1) [1]; [7]): 13.4 kcal/mol
- −ΔG (Gal-1 (Galectin-1) [1]; [7]): 3.30 kcal/mol
- −ΔH (Gal-1 (Galectin-1) [1]; [7]): 16.7 (± 0.221) kcal/mol
- Ka (Gal-1 (Galectin-1) [1]; [8]): 260 M⁻¹
- Gal-1 recognition of TF antigen by ITC (Bian et al.) (Gal-1 (Galectin-1) [2]): failed to observe Gal-1 recognition of the TF antigen in solution beyond millimolar affinity
- Thermodynamic driving force of Gal-3 binding (Gal-3 (Galectin-3) [3]): enthalpy-driven
- Gal-1 binding to TF antigen, glycan microarray (Gal-1): did not bind significantly
- Affinity of TF for His52-mutated Gal-1 (Gal-1, His52 mutant): high μM affinity
- Affinity of the Gal-1 CRD for TF [4]: high mM range

Molecule: ASF: Asialofetuin from fetal calf serum Type 1, a glycoprotein with three triantennary LacNAc presentations
- Kd in HEPES buffer (values not given) (Gal-1 (Galectin-1) [1]): mirrored the values obtained in phosphate buffer
- Gal-1 binding affinity in words (Gal-1 (Galectin-1) [1]; 25 °C): remained in the uM range; also recorded: low micromolar affinity
- −TΔS (Gal-1 (Galectin-1) [1]; [7]): 58.2 kcal/mol
- −ΔG (Gal-1 (Galectin-1) [1]; [7]): 7.15 kcal/mol
- Ka (Gal-1 (Galectin-1) [1]; [8]): 174000 M⁻¹
- Kd (Gal-1 (Galectin-1) [1]; [8]): 0.00576 mM
- −TΔS (his-tagged Gal-1; [9]): 50.1 kcal/mol
- −ΔG (his-tagged Gal-1; [9]): 7.37 kcal/mol
- agreement of titrations (his-tagged Gal-1): in agreement with values obtained for Gal-1 and previously reported value
- Ka (his-tagged Gal-1; [10]): 340100 M⁻¹
- Kd (his-tagged Gal-1; [10]): 2.94 µM
- −TΔS (his-tagged Gal-1; [10]): 49.6 kcal/mol
- −ΔG (his-tagged Gal-1; [10]): 7.55 kcal/mol

B1: Asialofetuin (ASF) from fetal calf serum Type 1 (natural protein, bovine (from fetal calf serum), UniProt P12763 19-359, looked up)
chain: IPLDPVAGYKEPACDDPDTEQAALAAVDYINKHLPRGYKHTLNQIDSVKVWPRRPTGEVYDIEIDTLETTCHVLDPTPLANCSVRQQTQHAVEGDCDIHVLKQDGQFSVLFTKCDSSPDSAEDVRKLCPDCPLLAPLNDSRVVHAVEVALATFNAESNGSYLQLVEISRAQFVPLPVSVSVEFAVAATDCIAKEVVDPTKCNLLAEKQYGFCKGSVIQKALGGEDVRVTCTLFQTQPVIPQPQPDGAEAEAPSAVPDAAGPTPSAAGPPVASVVVGPSVVAVPLPLHRAHYDLRHTFSGVASVESSSGEAFHVGKTPIVGQPSIPGGPVRLCPGRIRYFKI
modifications: desialylated glycoprotein with three triantennary LacNAc presentations (glycan valency of nine)
- fold affinity for ASF against Gal-1 (Galectin-3): ~12 fold
- -dH (Galectin-1): 65.4 ± 1.42 kcal/mol
- stoichiometry N (Galectin-1): 0.222
- -dH [6]: 57.1 kcal/mol and 57.5 kcal/mol
- stoichiometry N [6]: 0.274 and 0.283

The next lines start with results.

- Gal-1 binding affinity in words (Gal-1 (Galectin-1) [1]; 25 °C, listed as Thr-TF antigen): binding by Gal-1 in mM range
- −TΔS (Gal-1 (Galectin-1) [1]; [7]): 13.3 kcal/mol
- −ΔG (Gal-1 (Galectin-1) [1]; [7]): 3.28 kcal/mol
- −ΔH (Gal-1 (Galectin-1) [1]; [7]): 16.6 (± 0.269) kcal/mol
- Ka (Gal-1 (Galectin-1) [1]; [8]): 250 M⁻¹
- Kd (Gal-1 (Galectin-1) [1]; [8]): 3.96 mM
Molecule: CC(=O)NC1C(OC(C)C(N)C(=O)O)OC(CO)C(O)C1OC1OC(CO)C(O)C(O)C1O (centres unmarked) [Thr-TF, Gal1–3βGalNAcα1-O-Thr]
- Gal-1 binding affinity in words (Gal-1 (Galectin-1) [1]; 25 °C): failed to recognize TF disaccharide and Thr-TF (TF antigen) beyond the millimolar affinity

- −TΔS (Gal-1 (Galectin-1) [1]; [7]): 7.09 kcal/mol
- −ΔH (Gal-1 (Galectin-1) [1]; [7]): 11.9 (± 0.906) kcal/mol
- n-value (Gal-1 (Galectin-1) [1]): 2
- −TΔS (his-tagged Gal-1; [9]): 4.04 kcal/mol
- −ΔH (his-tagged Gal-1; [9]): 8.67 (± 1.43) kcal/mol
- n (binding stoichiometry) (his-tagged Gal-1; [9]): 2.05
Molecule: OC[C@H]1O[C@@H](O[C@H]2[C@H](O)[C@@H](O)C(O)O[C@@H]2CO)[C@H](O)[C@@H](O)[C@H]1O (mixture of isomers) [Lactose, lactose]
- agreement of titrations (his-tagged Gal-1): in agreement with values obtained for Gal-1 and previously reported value

- −TΔS (Gal-1 (Galectin-1) [1]; [7]): 4.40 kcal/mol
- −ΔG (Gal-1 (Galectin-1) [1]; [7]): 5.57 kcal/mol
- −ΔH (Gal-1 (Galectin-1) [1]; [7]): 9.97 (± 0.151) kcal/mol
- Ka (Gal-1 (Galectin-1) [1]; [8]): 12000 M⁻¹
- Kd (Gal-1 (Galectin-1) [1]; [8]): 0.083 mM
- n-value (Gal-1 (Galectin-1) [1]): 2
- −TΔS (his-tagged Gal-1; [9]): 4.27 kcal/mol
- −ΔG (his-tagged Gal-1; [9]): 5.53 kcal/mol
- −ΔH (his-tagged Gal-1; [9]): 9.79 (± 0.206) kcal/mol
- n (binding stoichiometry) (his-tagged Gal-1; [9]): 2.02
- Gal-3 affinity relative to Gal-1 (Gal-3 (Galectin-3) [5]): ~2 x
Molecule: CC(=O)N[C@H]1C(O)O[C@H](CO)[C@@H](O[C@@H]2O[C@H](CO)[C@H](O)[C@H](O)[C@H]2O)[C@@H]1O (some centres unmarked) [LacNAc, N-Acetyllactosamine]
- Kd in HEPES buffer (values not given) (Gal-1 (Galectin-1) [1]): mirrored the values obtained in phosphate buffer
- agreement of titrations (his-tagged Gal-1): in agreement with values obtained for Gal-1 and previously reported value
